Values joined by “and” are separate entries in the source; they are usually repeats but may differ in a detail not shown here. Identical values can stand only once. Inconclusive results and toxic doses are left out. Rule as the data show it: active = T/C of 150% or more; inactive = T/C below 125%.
Test system: L1210 leukemia ip in BDF1 mice, survival T/C
Assay: NCI In Vivo Anticancer Drug Screen. Data for tumor model L1210 Leukemia (intraperitoneal) in B6D2F1 (BDF1) mice
Details: endpoint: mean survival time, higher = longer survival
Method in brief: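 Ratio derived from survival: compound-dosed mice over vehicle-dosed mice, all bearing a transplantable tumor.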

[1] = dose: 100.0 mg/kg/injection, schedule: Q04DX003 (ip), vehicle: saline with Tween-80
[2] = dose: 200.0 mg/kg/injection, schedule: Q04DX003 (ip), vehicle: saline with Tween-80
[3] = dose: 400.0 mg/kg/injection, schedule: Q04DX003 (ip), vehicle: saline with Tween-80
[4] = dose: 100.0 mg/kg/injection, schedule: Q01DX001 (ip), vehicle: saline
[5] = dose: 200.0 mg/kg/injection, schedule: Q01DX001 (ip), vehicle: saline
[6] = dose: 400.0 mg/kg/injection, schedule: Q01DX001 (ip), vehicle: saline
[7] = dose: 100.0 mg/kg/injection, schedule: Q04DX003 (ip), vehicle: Klucel (hydroxypropylcellulose) (HPC)
[8] = dose: 200.0 mg/kg/injection, schedule: Q04DX003 (ip), vehicle: Klucel (hydroxypropylcellulose) (HPC)
[9] = dose: 400.0 mg/kg/injection, schedule: Q04DX003 (ip), vehicle: Klucel (hydroxypropylcellulose) (HPC)
[10] = dose: 100.0 mg/kg/injection, schedule: Q04DX003 (ip), vehicle: saline
[11] = dose: 200.0 mg/kg/injection, schedule: Q04DX003 (ip), vehicle: saline
[12] = dose: 400.0 mg/kg/injection, schedule: Q04DX003 (ip), vehicle: saline
[13] = dose: 100.0 mg/kg/injection, schedule: Q04DX002 (ip), vehicle: Klucel (hydroxypropylcellulose) (HPC)

Measured: T/C

CCCCCCCCCCc1cc2c([nH]1)C(=O)c1ccccc1C2=O
inactive: dose: 37.5 mg/kg/injection, schedule: Q01DX001 (ip), vehicle: Klucel (hydroxypropylcellulose) (HPC) 86 % of control | dose: 75.0 mg/kg/injection, schedule: Q01DX001 (ip), vehicle: Klucel (hydroxypropylcellulose) (HPC) 89 % of control

c1ccc2c(c1)ccc1ccccc12
inactive: [1] 100 % of control | [2] 92 % of control | [3] 92 % of control

O=C1C2(c3ccccc3)CC(CBr)C1(c1ccccc1)C(c1ccccc1)=C2c1ccccc1 (stereo not given)
inactive: dose: 50.0 mg/kg/injection, schedule: Q01DX001 (ip), vehicle: carboxymethylcellulose (CMC) 97 % of control | dose: 100.0 mg/kg/injection, schedule: Q01DX001 (ip), vehicle: carboxymethylcellulose (CMC) 100 % of control | dose: 200.0 mg/kg/injection, schedule: Q01DX001 (ip), vehicle: carboxymethylcellulose (CMC) 97 % of control | dose: 400.0 mg/kg/injection, schedule: Q01DX001 (ip), vehicle: carboxymethylcellulose (CMC) 97 % of control

COc1cc2ccncc2cc1Oc1ccc(C)cc1
inactive: dose: 50.0 mg/kg/injection, schedule: Q01DX001 (ip), vehicle: other 97 % of control | dose: 100.0 mg/kg/injection, schedule: Q01DX001 (ip), vehicle: other 104 % of control | dose: 200.0 mg/kg/injection, schedule: Q01DX001 (ip), vehicle: other 97 % of control

S=C(S)NCCCNC(=S)S
inactive: [4] 98 % of control and 103 % of control | [5] 95 % of control and 100 % of control | [6] 95 % of control

COC(=O)c1ccc(O)c([N+](=O)[O-])c1
inactive: dose: 50.0 mg/kg/injection, schedule: Q01DX009 (ip), vehicle: saline with Tween-80 103 % of control | dose: 100.0 mg/kg/injection, schedule: Q01DX009 (ip), vehicle: saline with Tween-80 94 % of control | dose: 200.0 mg/kg/injection, schedule: Q01DX009 (ip), vehicle: saline with Tween-80 89 % of control

N#Cc1cccc(-c2nc3ncnc(N)c3[nH]2)c1
inactive: [7] 94 % of control | [8] 96 % of control | [9] 92 % of control

O=C(c1ccccc1)N(Nc1ccccc1)c1ccccc1
inactive: dose: 50.0 mg/kg/injection, schedule: Q01DX009 (ip), vehicle: Klucel (hydroxypropylcellulose) (HPC) 94 % of control | dose: 100.0 mg/kg/injection, schedule: Q01DX009 (ip), vehicle: Klucel (hydroxypropylcellulose) (HPC) 97 % of control | [7] 98 % of control | dose: 200.0 mg/kg/injection, schedule: Q01DX009 (ip), vehicle: Klucel (hydroxypropylcellulose) (HPC) 97 % of control | [8] 93 % of control | dose: 400.0 mg/kg/injection, schedule: Q01DX009 (ip), vehicle: Klucel (hydroxypropylcellulose) (HPC) 89 % of control | [9] 98 % of control

CCOC(=O)c1ccc(N=NNc2ccc(C(=O)OCC)cc2)cc1
inactive: dose: 10.0 mg/kg/injection, schedule: Q01DX Z (ip), vehicle: other 95 % of control | dose: 30.0 mg/kg/injection, schedule: Q01DX Z (ip), vehicle: other 87 % of control

CCCCCCCCCCC(=O)CCCCCC
inactive: dose: 100.0 mg/kg/injection, schedule: Q01DX009 (ip), vehicle: other 98 % of control | dose: 200.0 mg/kg/injection, schedule: Q01DX009 (ip), vehicle: other 100 % of control | dose: 400.0 mg/kg/injection, schedule: Q01DX009 (ip), vehicle: other 107 % of control

CCC([N+](=O)[O-])S(=O)(=O)c1ccc(C)cc1 (stereo not given)
inactive: [4] 98 % of control | dose: 100.0 mg/kg/injection, schedule: Q01DX009 (ip), vehicle: saline 98 % of control | [10] 102 % of control | [5] 95 % of control | dose: 200.0 mg/kg/injection, schedule: Q01DX009 (ip), vehicle: saline 94 % of control and 95 % of control | [11] 100 % of control | [6] 93 % of control | dose: 400.0 mg/kg/injection, schedule: Q01DX009 (ip), vehicle: saline 93 % of control and 103 % of control | [12] 94 % of control

COc1ccccc1N=C(N)N=C(N)N
inactive: dose: 75.0 mg/kg/injection, schedule: Q01DX001 (ip), vehicle: saline 96 % of control | dose: 150.0 mg/kg/injection, schedule: Q01DX001 (ip), vehicle: saline 104 % of control

O=C(O)c1cccc(C(=O)O)[n+]1[O-]
inactive: dose: 50.0 mg/kg/injection, schedule: Q04DX002 (ip), vehicle: Klucel (hydroxypropylcellulose) (HPC) 101 % of control | [13] 95 % of control

C[Si](C)(c1ccc(C(=O)Cl)cc1)c1ccc(C(=O)Cl)cc1
inactive: dose: 100.0 mg/kg/injection, schedule: Q04DX002 (ip), vehicle: saline with Tween-80 96 % of control | dose: 200.0 mg/kg/injection, schedule: Q04DX002 (ip), vehicle: saline with Tween-80 96 % of control | dose: 400.0 mg/kg/injection, schedule: Q04DX002 (ip), vehicle: saline with Tween-80 100 % of control

c1ccc(N(CC2CO2)CC2CO2)cc1 (stereo not given)
inactive: [1] 106 % of control | [2] 104 % of control | [3] 112 % of control

C=C(Cl)C[N+]12CN3CN(CN(C3)C1)C2
inactive: dose: 12.5 mg/kg/injection, schedule: Q01DX009 (ip), vehicle: saline 108 % of control | dose: 12.5 mg/kg/injection, schedule: Q04DX003 (ip), vehicle: saline 102 % of control | dose: 25.0 mg/kg/injection, schedule: Q01DX009 (ip), vehicle: saline 101 % of control | dose: 25.0 mg/kg/injection, schedule: Q04DX003 (ip), vehicle: saline 104 % of control | dose: 50.0 mg/kg/injection, schedule: Q01DX009 (ip), vehicle: saline 111 % of control | dose: 50.0 mg/kg/injection, schedule: Q04DX003 (ip), vehicle: saline 102 % of control

C1CCC(N2CN(C3CCCCC3)CN(C3CCCCC3)C2)CC1
inactive: [13] 97 % of control | dose: 200.0 mg/kg/injection, schedule: Q04DX002 (ip), vehicle: Klucel (hydroxypropylcellulose) (HPC) 106 % of control | dose: 400.0 mg/kg/injection, schedule: Q04DX002 (ip), vehicle: Klucel (hydroxypropylcellulose) (HPC) 115 % of control

NN=C(NN)NN
inactive: dose: 100.0 mg/kg/injection, schedule: Q04DX002 (ip), vehicle: saline 98 % of control | dose: 200.0 mg/kg/injection, schedule: Q04DX002 (ip), vehicle: saline 104 % of control | dose: 400.0 mg/kg/injection, schedule: Q04DX002 (ip), vehicle: saline 104 % of control

CC1=NCCO1
inactive: [10] 102 % of control | [11] 105 % of control | [12] 105 % of control

Cc1ccc(-c2ccc3sc(C)[n+](C)c3c2)cc1
inactive: [10] 92 % of control

CCc1c(Nc2ccc(C)c(C)c2)[nH]c(N)nc1=S
inactive: dose: 100.0 mg/kg/injection, schedule: Q01DX Z (ip), vehicle: methylcellulose (MC) 87 % of control | dose: 200.0 mg/kg/injection, schedule: Q01DX Z (ip), vehicle: methylcellulose (MC) 109 % of control

Reference: PubChem BioAssay AID248 (DTP/NCI, 2004)
